# Assay results published in US20030072781A1, “Calcified tissue facing preparation containing antimicrobial agent” (Advantage Dental Products, Inc., priority 1998, published 2003).
# Test system: Strept. mutans
# Assay: Strept. mutans culture rinse, colony count
# Format: cell-based
# Conditions: 30 second submersion, counted after 48 hours
# Protocol: Standardized cultures of Strept. mutans are grown in petri dishes and subjected to 30 second submersion in 20 milliliters of various concentration rinses of aqueous chlorohexidine. A 0.04% chlorohexidine solution and water serve as controls. Thereafter, the petri dishes are incubated and colony members counted after 48 hours.
smiles,measurement,setting,value
"[H]/N=C(\N/C(=N/[H])NCCCCCCNC(=N)NC(=N)Nc1ccc(Cl)cc1)Nc1ccc(Cl)cc1 [Chlorohexidine, chlorohexidine]",Colony Member After Rinse,0.04 wt. % aqueous rinse (control),26
same,Colony Member After Rinse,0.2 wt. % aqueous rinse,0
same,Colony Member After Rinse,0.5 wt. % aqueous rinse,1
same,Colony Member After Rinse,1.0 wt. % aqueous rinse,1
same,Colony Member After Rinse,2.0 wt. % aqueous rinse,0
same,Colony Member After Rinse,5.0 wt. % aqueous rinse,2
same,Colony Member After Rinse,10.0 wt. % aqueous rinse,0
